From patent US20230399312A1, “SUBSTITUTED PYRIMIDINES AND METHODS OF USE” (THERAVANCE BIOPHARMA R&D IP, LLC, priority 2020, published 2023)

What was measured:
[1] = tested on: TGF-β-stimulated SMAD3 phosphorylation in BEAS-2B cells; assay: Cellular ALK5 potency assay, inhibition of TGF-β stimulated pSMAD3 formation in BEAS-2B cells; assay type: cell-based; conditions: Homo sapiens, pSMAD3, TGF-β 10 ng/mL, read-out: BEAS2B pIC50 (converted)
Procedure, shortened: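 Human lung epithelial BEAS-2B cells were pre-treated with compound for 1 h at 37 °C, then stimulated with TGF-β (final 10 ng/mL) for 30 min before lysis. pSMAD3 was quantified by AlphaLISA and pIC50 derived from dose-dependent signal change versus TGF-β-stimulated untreated cells.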

[2] = molecular target: T1, recombinant human ALK5 (TGF-βR1) protein (Homo sapiens, UniProt P36897); assay: Biochemical ALK5 (TGF-βR1) assay to measure pKi (LANCE Ultra ULight kinase assay); conditions: apparent pKi, converted from pIC50 by Cheng-Prusoff
T1 construct: purchased Life Technologies PR9075A
T1 sequence (P36897 34-503): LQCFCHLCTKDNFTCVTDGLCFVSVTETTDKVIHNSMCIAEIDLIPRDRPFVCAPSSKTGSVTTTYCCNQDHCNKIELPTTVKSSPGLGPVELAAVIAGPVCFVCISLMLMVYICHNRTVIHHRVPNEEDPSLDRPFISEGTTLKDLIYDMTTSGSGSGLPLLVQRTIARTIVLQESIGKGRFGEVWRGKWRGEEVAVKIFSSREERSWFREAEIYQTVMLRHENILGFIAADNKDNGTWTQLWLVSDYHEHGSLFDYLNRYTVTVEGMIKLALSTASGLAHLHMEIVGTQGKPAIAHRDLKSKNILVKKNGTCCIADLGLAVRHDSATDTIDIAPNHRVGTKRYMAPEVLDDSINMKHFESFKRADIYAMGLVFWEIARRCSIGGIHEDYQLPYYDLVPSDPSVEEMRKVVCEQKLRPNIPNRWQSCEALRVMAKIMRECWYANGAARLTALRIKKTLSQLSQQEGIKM
Procedure, shortened: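 Cmpd + enzyme, 60 min RT; ATP from 125 μM (5×) stock, 60 min 37 °C; stop 12 mM EDTA/Eu anti-pThr1342 Topo2α Ab (pH 7.0 buffer); TR-FRET 665 nm. DMSO = max, SD-208 = min signal. 4-PL pIC50 → pKi (Cheng-Prusoff).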

Row | Ki [2] | SMILES | IC50 [1]
1 | 0.0398 to 0.316 nM | Cc1cccc(-c2nccc(Nc3ccnc(Nc4csc(C(=O)OC[C@@H]5CCCCN5)c4)n3)n2)n1 [Compound 639, [(2S)-2-piperidyl]methyl 4-[[4-[[2-(6-methyl-2-pyridyl)pyrimidin-4-yl]amino]pyrimidin-2-yl]amino]thiophene-2-carboxylate] | 25.1 to 158 nM
2 | 0.398 to 3.16 nM | Cc1cccc(-c2nccc(Nc3ccnc(Nc4cccc(C(=O)N5CCN(C(C)C)CC5)c4)n3)n2)n1 [Compound 292, (4-isopropylpiperazin-1-yl)-[3-[[4-[[2-(6-methyl-2-pyridyl)pyrimidin-4-yl]amino]pyrimidin-2-yl]amino]phenyl]methanone] | 25.1 to 158 nM
3 | 0.0398 to 0.316 nM | Cc1cccc(-c2nccc(Nc3ccnc(Nc4ccc(C(=O)O[C@H]5CCN(C)C5)s4)n3)n2)n1 [Compound 507, [(3S)-1-methylpyrrolidin-3-yl] 5-[[4-[[2-(6-methyl-2-pyridyl)pyrimidin-4-yl]amino]pyrimidin-2-yl]amino]thiophene-2-carboxylate] | 25.1 to 158 nM
4 | 0.0398 to 0.316 nM | Cc1cccc(-c2nccc(Nc3ccnc(Nc4ccc(S(=O)(=O)N5CCN(CCO)CC5)cc4)n3)n2)n1 [Compound 541, 2-[4-[4-[[4-[[2-(6-methyl-2-pyridyl)pyrimidin-4-yl]amino]pyrimidin-2-yl]amino]phenyl]sulfonylpiperazin-1-yl]ethanol] | 25.1 to 158 nM
5 | 0.0398 to 0.316 nM | CNC(=O)[C@H]1CN(Cc2ccc(Nc3nccc(Nc4ccnc(-c5cccc(C)n5)n4)n3)cc2)CCN1 [Compound 293, (2R)-N-methyl-4-[[4-[[4-[[2-(6-methyl-2-pyridyl)pyrimidin-4-yl]amino]pyrimidin-2-yl]amino]phenyl]methyl] piperazine-2-carboxamide] | 25.1 to 158 nM
6 | 0.398 to 3.16 nM | Cc1cccc(-c2nccc(Nc3ccnc(Nc4cccc(C(=O)O[C@@H]5CCNC5)c4)n3)n2)n1 [Compound 459, [(3R)-pyrrolidin-3-yl] 3-[[4-[[2-(6-methyl-2-pyridyl)pyrimidin-4-yl]amino]pyrimidin-2-yl]amino]benzoate] | 25.1 to 158 nM
7 | 0.398 to 3.16 nM | Cc1cccc(-c2nccc(Nc3ccnc(Nc4nc(C(=O)N5CCN[C@@H](CO)C5)cs4)n3)n2)n1 [Compound 349, [(3R)-3-(hydroxymethyl)piperazin-1-yl]-[2-[[4-[[2-(6-methyl-2-pyridyl)pyrimidin-4-yl]amino]pyrimidin-2-yl]amino]thiazol-4-yl]methanone] | 200 to 1260 nM
8 | 0.0398 to 0.316 nM | Cc1cccc(-c2nccc(Nc3ccnc(Nc4csc(C(=O)OCCN5CCNCC5)c4)n3)n2)n1 [Compound 554, 2-piperazin-1-ylethyl 4-[[4-[[2-(6-methyl-2-pyridyl)pyrimidin-4-yl]amino]pyrimidin-2-yl]amino]thiophene-2-carboxylate] | 25.1 to 158 nM
9 | 0.0398 to 0.316 nM | Cc1cccc(-c2nccc(Nc3ccnc(Nc4ccc(CN5CCC(C(=O)O)C5)cc4)n3)n2)n1 (stereo not shown) [Compound 124, 1-[[4-[[4-[[2-(6-methyl-2-pyridyl)pyrimidin-4-yl]amino]pyrimidin-2-yl]amino]phenyl]methyl] pyrrolidine-3-carboxylic acid] | 25.1 to 158 nM
10 | 0.0398 to 0.316 nM | Cc1cccc(-c2nccc(Nc3ccnc(Nc4ccc(N5CCN(CC(C)C)CC5)cc4)n3)n2)n1 [Compound 494, N2-[4-(4-isobutylpiperazin-1-yl)phenyl]-N4-[2-(6-methyl-2-pyridyl)pyrimidin-4-yl]pyrimidine-2,4-diamine] | 25.1 to 158 nM
11 | 0.0398 to 0.316 nM | Cc1cccc(-c2nccc(Nc3ccnc(Nc4ccc(C)c(CN5CCN(C)CC5)c4)n3)n2)n1 [Compound 311, N2-[4-methyl-3-[(4-methylpiperazin-1-yl)methyl]phenyl]-N4-[2-(6-methyl-2-pyridyl)pyrimidin-4-yl]pyrimidine-2,4-diamine] | 25.1 to 158 nM
12 | 0.0398 to 0.316 nM | Cc1cccc(-c2nccc(Nc3ccnc(Nc4cccc(N5CCNCC5)c4)n3)n2)n1 [Compound 322, N4-[2-(6-methyl-2-pyridyl)pyrimidin-4-yl]-N2-(3-piperazin-1-ylphenyl)pyrimidine-2,4-diamine] | 25.1 to 158 nM
13 | 0.0398 to 0.316 nM | Cc1cccc(-c2nccc(Nc3ccnc(Nc4ccc(N5CCNCC5)c(CC(=O)O[C@@H]5CCN(C)C5)c4)n3)n2)n1 [Compound 499, [(3R)-1-methylpyrrolidin-3-yl] 2-[5-[[4-[[2-(6-methyl-2-pyridyl)pyrimidin-4-yl]amino]pyrimidin-2-yl]amino]-2-piperazin-1-yl-phenyl]acetate] | 200 to 1260 nM
14 | 0.0398 to 0.316 nM | Cc1cccc(-c2nccc(Nc3ccnc(Nc4ccc(NC[C@H]5CCCN5)cc4)n3)n2)n1 [Compound 65, N4-[2-(6-methyl-2-pyridyl)pyrimidin-4-yl]-N2-[4-[[(2R)-pyrrolidin-2-yl]methylamino]phenyl] pyrimidine-2,4-diamine] | 25.1 to 158 nM
15 | 0.0398 to 0.316 nM | Cc1cccc(-c2nccc(Nc3ccnc(Nc4csc(C(=O)OCCN5C[C@@H](C)N[C@@H](C)C5)c4)n3)n2)n1 [Compound 627, 2-[(3S,5R)-3,5-dimethylpiperazin-1-yl]ethyl 4-[[4-[[2-(6-methyl-2-pyridyl)pyrimidin-4-yl]amino]pyrimidin-2-yl]amino]thiophene-2-carboxylate] | 25.1 to 158 nM
16 | 3.98 to 31.6 nM | COc1cc(N2CCOCC2)ccc1Nc1nccc(Nc2ccnc(-c3cccc(C)n3)n2)n1 [Compound 348, N2-(2-methoxy-4-morpholino-phenyl)-N4-[2-(6-methyl-2-pyridyl)pyrimidin-4-yl]pyrimidine-2,4-diamine] | 200 to 1260 nM
17 | 0.398 to 3.16 nM | Cc1cccc(-c2nccc(Nc3ccnc(Nc4cccc(C(=O)N5CCNCC5)c4)n3)n2)n1 [Compound 505, [3-[[4-[[2-(6-methyl-2-pyridyl)pyrimidin-4-yl]amino]pyrimidin-2-yl]amino]phenyl]-piperazin-1-yl-methanone] | 25.1 to 158 nM
18 | 0.0398 to 0.316 nM | Cc1cccc(-c2nccc(Nc3ccnc(Nc4ccc(CN5CC(C(=O)OC6CNC6)C5)cc4)n3)n2)n1 [Compound 167, azetidin-3-yl 1-[[4-[[4-[[2-(6-methyl-2-pyridyl)pyrimidin-4-yl]amino]pyrimidin-2-yl]amino]phenyl]methyl] azetidine-3-carboxylate] | 25.1 to 158 nM
19 | 0.398 to 3.16 nM | Cc1cccc(-c2nccc(Nc3ccnc(Nc4nc(CN5CCC[C@@H](C(=O)OCC6CNC6)C5)cs4)n3)n2)n1 [Compound 155, azetidin-3-ylmethyl (3R)-1-[[2-[[4-[[2-(6-methyl-2-pyridyl)pyrimidin-4-yl]amino]pyrimidin-2-yl]amino]thiazol-4-yl]methyl]piperidine-3-carboxylate] | 200 to 1260 nM
20 | 0.398 to 3.16 nM | Cc1cccc(-c2nccc(Nc3ccnc(Nc4cc(F)c(C(=O)N5CCNCC5)c(Cl)c4)n3)n2)n1 [Compound 2, [2-chloro-6-fluoro-4-[[4-[[2-(6-methyl-2-pyridyl)pyrimidin-4-yl]amino]pyrimidin-2-yl]amino]phenyl]-piperazin-1-yl-methanone] | 25.1 to 158 nM
21 | 0.0398 to 0.316 nM | Cc1cccc(-c2nccc(Nc3ccnc(Nc4ccc(C(=O)NCC5CNC5)cc4)n3)n2)n1 [Compound 92, N-(azetidin-3-ylmethyl)-4-[[4-[[2-(6-methyl-2-pyridyl)pyrimidin-4-yl]amino]pyrimidin-2-yl]amino]benzamide] | ≤ 20 nM
22 | 0.0398 to 0.316 nM | Cc1cccc(-c2nccc(Nc3ccnc(Nc4ccc(-c5cnn(CCN)c5)cc4)n3)n2)n1 [Compound 440, N2-[4-[1-(2-aminoethyl)pyrazol-4-yl]phenyl]-N4-[2-(6-methyl-2-pyridyl)pyrimidin-4-yl]pyrimidine-2,4-diamine] | 25.1 to 158 nM
23 | 3.98 to 31.6 nM | Cc1cccc(-c2nccc(Nc3ccnc(Nc4nc(C)cs4)n3)n2)n1 [Compound 226, N4-[2-(6-methyl-2-pyridyl)pyrimidin-4-yl]-N2-(4-methylthiazol-2-yl)pyrimidine-2,4-diamine] | 25.1 to 158 nM
24 | 0.398 to 3.16 nM | Cc1cccc(-c2nccc(Nc3ccnc(Nc4nc(CN5CCNCC5)cs4)n3)n2)n1 [Compound 287, N4-(2-(6-methylpyridin-2-yl)pyrimidin-4-yl)-N2-(4-(piperazin-1-ylmethyl)thiazol-2-yl)pyrimidine-2,4-diamine] | 25.1 to 158 nM
25 | ≤ 0.0316 nM | CNCc1ccc(Nc2nccc(Nc3ccnc(-c4cccc(C)n4)n3)n2)cc1 [Compound 503, N2-[4-(methylaminomethyl)phenyl]-N4-[2-(6-methyl-2-pyridyl)pyrimidin-4-yl]pyrimidine-2,4-diamine] | 25.1 to 158 nM
26 | 0.0398 to 0.316 nM | CC[C@H](C)OC(=O)CC1CNCCN1c1ccc(Nc2nccc(Nc3ccnc(-c4cccc(C)n4)n3)n2)cc1 (stereo partly drawn) [Compound 449, [(1S)-1-methylpropyl] 2-[1-[4-[[4-[[2-(6-methyl-2-pyridyl)pyrimidin-4-yl]amino]pyrimidin-2-yl]amino]phenyl]piperazin-2-yl]acetate] | 25.1 to 158 nM
